This note sets out measurements from US7432276B2, “ABCA1 elevating compounds” (CV Therapeutics, Inc., priority 2005, dated 2008).

The subject of one experiment is ABCA1 mRNA. Kind of experiment: ABCA1 mRNA induction in THP-1 cells, QuantiGene branched DNA assay. Type of experiment: cell-based. The note with it: 10 μM test compound, 18-20 hours. The gist of the method: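 THP-1 cells, grown to subconfluence, treated with compounds at 10 and 3 μM in DMEM/BSA for 18–20 h. Lysates hybridized with ABCA1-specific probe 16–18 h at 53 °C; QuantiGene branched DNA luminescence gives fold increase over DMSO.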
For the compound `COc1cccc2c1[C@H]1Nc3ccc(-c4ccc(C(N)=O)cc4)cc3C(C)(C)[C@H]1CO2` [Number 108, 4-((12aS,6aR)-1-methoxy-7,7-dimethyl-7,12,12a,6a-tetrahydrochromano[4,3-b]quinolin-9-yl)benzamide], the “ABCA1 Induction Fold Increase over DMSO Vehicle” value (“ABCA1 Induction Fold Increase” below) stood at 4.7 FOLD INCREASE.

For `CC(C)(C)OC(=O)N1CCN(C(=O)c2ccc3c(c2)C(C)(C)[C@H]2COc4cccc(F)c4[C@H]2N3)CC1` [Number 126, ((6aR,12aS)-6a,7,12,12a-tetrahydro-1-fluoro-7,7-dimethyl-6H-chromeno[4,3-b]quinolin-9-yl)(4-tert-butyl-carboxylate-piperazin-1-yl)methanone], the “ABCA1 Induction Fold Increase” value stood at 7.3 FOLD INCREASE.

With `COc1cccc2c1OCC1C2Nc2ccc(C(N)=S)cc2C1(C)C` (stereo not drawn) [Number 58, amino(4-methoxy-7,7-dimethyl(7,12,12a,6a-tetrahydrochromano[4,3-b]quinolin-9-yl))methane-1-thione], the “ABCA1 Induction Fold Increase” value was 6.2 FOLD INCREASE.

With `COc1cccc2c1OC[C@@H]1[C@H]2Nc2ccc(F)cc2C1(C)C` [Number 48, (6aS,12aR)-9-fluoro-4-methoxy-7,7-dimethyl-7,12,12a,6a-tetrahydrochromano[4,3-b]quinoline], the “ABCA1 Induction Fold Increase” value is listed as 3.7 FOLD INCREASE.

Regarding `CC(C)Oc1ccc2c(c1)C(C)(C)C1COc3c(F)cccc3[C@H]1N2` (stereo partly drawn) [Number 103, (12aS)-4-fluoro-7,7-dimethyl-9-(methylethoxy)-7,12,12a,6a-tetrahydrochromano[4,3-b]quinoline], the “ABCA1 Induction Fold Increase” value came to 4.0 FOLD INCREASE.

On to `CC1(C)c2cc(C(N)=O)ccc2NC2c3cccc(F)c3OCC21` (stereo not drawn) [Number 50, 4-fluoro-7,7-dimethyl-7,12,12a,6a-tetrahydrochromano[4,3-b]quinoline-9-carboxamide], for which the “ABCA1 Induction Fold Increase” value was determined as 5.0 FOLD INCREASE.

As for `CC1(C)c2cc(C(O)(C(F)(F)F)C(F)(F)F)ccc2N[C@H]2c3ccccc3OC[C@H]21` [Number 70, 2-((6aS,12aR)-7,7-dimethyl(7,12,12a,6a-tetrahydrochromano[4,3-b]quinolin-9-yl))-1,1,1,3,3,3-hexafluoropropan-2-ol], the “ABCA1 Induction Fold Increase” value was 4.0 FOLD INCREASE.

On to `COc1cccc2c1OCC1C2Nc2ccc(C(O)(C(F)(F)F)C(F)(F)F)cc2C1(C)C` (stereo not drawn) [Number 33, 1,1,1,3,3,3-hexafluoro-2-(4-methoxy-7,7-dimethyl(7,12,12a,6a-tetrahydrochromano[4,3-b]quinolin-9-yl))propan-2-ol], for which the “ABCA1 Induction Fold Increase” value came out at 6.4 FOLD INCREASE.

For `COc1cccc2c1C1Nc3ccc(C(C)=O)cc3C(C)(C)C1CO2` (stereo not drawn) [Number 43, 1-(1-methoxy-7,7-dimethyl-7,12,12a,6a-tetrahydrochromano[4,3-b]quinolin-9-yl)ethan-1-one], the “ABCA1 Induction Fold Increase” value amounted to 4.1 FOLD INCREASE.

In the case of `CC(C)Oc1ccc2c(c1)C(C)(C)C1COc3c(F)cccc3C1N2` (stereo not drawn) [Number 102, 4-fluoro-7,7-dimethyl-9-(methylethoxy)-7,12,12a,6a-tetrahydrochromano[4,3-b]quinoline], the “ABCA1 Induction Fold Increase” value was 4.2 FOLD INCREASE.

Regarding `COc1cccc2c1[C@H]1Nc3ccc(-c4ccc(C(F)(F)F)cc4)cc3C(C)(C)[C@@H]1CO2` [Number 93, (12aS,6aS)-1-methoxy-7,7-dimethyl-9-[4-(trifluoromethyl)phenyl]-7,12,12a,6a-tetrahydrochromano[4,3-b]quinoline], the “ABCA1 Induction Fold Increase” value turned out to be 6.8 FOLD INCREASE.

With `CC(C)=CCOC(=O)c1ccc2c(c1)C1Nc3ccc(B(O)O)cc3C(C)(C)C1CO2` (stereo not drawn) [Number 15, 3-methylbut-2-enyl 9-(dihydroxyboramethyl)-7,7-dimethyl-7,12,12a,6a-tetrahydrochromano[4,3-b]quinoline-2-carboxylate], the “ABCA1 Induction Fold Increase” value is given as 1.8 FOLD INCREASE.

Consider `CCOc1cccc2c1OCC1C2Nc2ccc(C(N)=O)cc2C1(C)C` (stereo not drawn) [Number 30, 4-ethoxy-7,7-dimethyl-7,12,12a,6a-tetrahydrochromano[4,3-b]quinoline-9-carboxamide], for which the “ABCA1 Induction Fold Increase” value is recorded as 5.3 FOLD INCREASE.

`COc1cccc2c1OC[C@@H]1[C@H]2Nc2ccccc2C1(C)C` [Number 37, (6aS,12aR)-4-methoxy-7,7-dimethyl-7,12,12a,6a-tetrahydrochromano[4,3-b]quinoline]: the “ABCA1 Induction Fold Increase” value is 8.3 FOLD INCREASE.

For `CCOc1cccc2c1OCC1C2Nc2ccc(C(C)=O)cc2C1(C)C` (stereo not drawn) [Number 42, 1-(4-ethoxy-7,7-dimethyl-7,12,12a,6a-tetrahydrochromano[4,3-b]quinolin-9-yl)ethan-1-one], the “ABCA1 Induction Fold Increase” value is recorded as 3.8 FOLD INCREASE.

With `CC1(C)c2cc(C(O)(C(F)(F)F)C(F)(F)F)ccc2NC2c3ccc(C(=O)O)cc3OCC21` (stereo not drawn) [Number 14, 7,7-dimethyl-9-[2,2,2-trifluoro-1-hydroxy-1-(trifluoromethyl)ethyl]-7,12,12a,6a-tetrahydrochromano[4,3-b]quinoline-3-carboxylic acid], the “ABCA1 Induction Fold Increase” value turned out to be 3.1 FOLD INCREASE.

Consider `COc1cccc2c1OCC1C2Nc2ccc(Cc3nnn[nH]3)cc2C1(C)C` (stereo not drawn) [Number 76, 4-methoxy-7,7-dimethyl-9-(1,2,3,4-tetraazol-5-ylmethyl)-7,12,12a,6a-tetrahydrochromano[4,3-b]quinoline], for which the “ABCA1 Induction Fold Increase” value stood at 6.0 FOLD INCREASE.

For the compound `COc1cccc2c1C1Nc3ccc(C(F)(F)F)cc3C(C)(C)C1CO2` (stereo not drawn) [Number 44, 1-methoxy-7,7-dimethyl-9-(trifluoromethyl)-7,12,12a,6a-tetrahydrochromano[4,3-b]quinoline], the “ABCA1 Induction Fold Increase” value was 2.2 FOLD INCREASE.

For the compound `COC(=O)/C=C/c1ccc2c(c1)C1Nc3ccc(C(O)(C(F)(F)F)C(F)(F)F)cc3C(C)(C)C1CO2` (stereo not drawn) [Number 35, methyl (2E)-3-{7,7-dimethyl-9-[2,2,2-trifluoro-1-hydroxy-1-(trifluoromethyl)ethyl](7,12,12a,6a-tetrahydrochromano[4,3-b]quinolin-2-yl)}prop-2-enoate], the “ABCA1 Induction Fold Increase” value came out at 4.3 FOLD INCREASE.

As for `COc1ccc(Br)c2c1OC[C@@H]1[C@H]2Nc2ccc(C(O)(C(F)(F)F)C(F)(F)F)cc2C1(C)C` [Number 64, 2-((6aS,12aR)-1-bromo-4-methoxy-7,7-dimethyl(7,12,12a,6a-tetrahydrochromano[4,3-b]quinolin-9-yl))-1,1,1,3,3,3-hexafluoropropan-2-ol], the “ABCA1 Induction Fold Increase” value is on record as 2.5 FOLD INCREASE.

As to `COc1cccc2c1OC[C@@H]1[C@@H]2Nc2ccc(C(=O)N3CCS(=O)(=O)CC3)cc2C1(C)C` [Number 128, ((6aS,12aS)-6a,7,12,12a-tetrahydro-4-methoxy-7,7-dimethyl-6H-chromeno[4,3-b]quinolin-9-yl)(1,1-dione-1,4-thiazaperhydroin-yl)methanone], the “ABCA1 Induction Fold Increase” value is listed as 2.7 FOLD INCREASE.

Still in this experiment, the particulars now being: Homo sapiens, 10 μM test compound, 18-20 hours, read-out: ABCA1 Induction Fold Increase over DMSO Vehicle.
As to `CCCCN1c2ccccc2C(C)(C)[C@H]2COc3cccc(OC)c3[C@H]21` [Number 174, (6aR,12aS)-12-butyl-6a,7,12,12a-tetrahydro-1-methoxy-7,7-dimethyl-6H-chromeno[4,3-b]quinoline], the fold induction at 10 µM stood at 1.9.

Consider `COC(=O)c1ccc2c(c1)C(C)(C)[C@H]1COc3c(OC)cc(-c4c(C)noc4C)cc3[C@H]1N2` (racemic) [Number 162, (6aR,12aS)-methyl 6a,7,12,12a-tetrahydro-4-methoxy-7,7-dimethyl-2-(3,5-dimethylisoxazol-4-yl)-6H-chromeno[4,3-b]quinoline-9-carboxylate], for which the fold induction at 10 µM was found to be 7.7.

Consider `COc1cccc2c1[C@H]1Nc3ccc(-n4cc(C(=O)O)cn4)cc3C(C)(C)[C@H]1CO2` [Number 136, 1-((6aR,12aS)-6a,7,12,12a-tetrahydro-1-methoxy-7,7-dimethyl-6H-chromeno[4,3-b]quinolin-9-yl)-1H-pyrazole-4-carboxylic acid], for which the fold induction at 10 µM worked out at 4.1.

Turning to `CCS(=O)(=O)N1CCN(C(=O)c2ccc3c(c2)C(C)(C)[C@H]2COc4c(OC)cccc4[C@H]2N3)CC1` [Number 134, ((6aR,12aS)-4-methoxy-6a,7,12,12a-tetrahydro-7,7-dimethyl-6H-chromeno[4,3-b]quinolin-9-yl)(4-ethanesulfonylpiperazin-1-yl)methanone], the fold induction at 10 µM came out at 5.8.

As to `COc1cccc2c1[C@H]1Nc3ccc(-n4cc(C(=O)N(C)C)cn4)cc3C(C)(C)[C@H]1CO2` [Number 137, 1-((6aR,12aS)-6a,7,12,12a-tetrahydro-1-methoxy-7,7-dimethyl-6H-chromeno[4,3-b]quinolin-9-yl)-N,N-dimethyl-1H-pyrazole-4-carboxamide], the fold induction at 10 µM stood at 7.

For the compound `COc1cccc2c1[C@@H]1[C@@H](CO2)C(C)(C)c2ccccc2N1CC(=O)O` [Number 156, 2-((6aS,12aS)-6a,7-dihydro-1-methoxy-7,7-dimethyl-6H-chromeno[4,3-b]quinolin-12(12aH)-yl)acetic acid], the fold induction at 10 µM turned out to be 7.6.

Turning to `CCOC(=O)c1cnn(-c2ccc3c(c2)C(C)(C)[C@H]2COc4cccc(OC)c4[C@H]2N3)c1` [Number 135, ethyl 1-((6aR,12aS)-6a,7,12,12a-tetrahydro-1-methoxy-7,7-dimethyl-6H-chromeno[4,3-b]quinolin-9-yl)-1H-pyrazole-4-carboxylate], the fold induction at 10 µM was determined as 6.4.

On to `CCOP(=O)(Cc1ccc2c(c1)C(C)(C)[C@H]1COc3c(OC)cc(-c4cn[nH]c4)cc3[C@H]1N2)OCC` [Number 181, diethyl((6aR,12aS)-6a,7,12,12a-tetrahydro-4-methoxy-7,7-dimethyl-2-(1H-pyrazol-4-yl)-6H-chromeno[4,3-b]quinolin-9-yl)methylphosphonate], for which the fold induction at 10 µM amounted to 4.9.

Turning to `CCOP(=O)(Cc1ccc2c(c1)C(C)(C)[C@H]1COc3c(OC)cc(Br)cc3[C@H]1N2)OCC` [Number 168, diethyl ((6aR,12aS)-2-bromo-6a,7,12,12a-tetrahydro-4-methoxy-7,7-dimethyl-6H-chromeno[4,3-b]quinolin-9-yl)methylphosphonate], the fold induction at 10 µM is 4.
